Reference: patent publication EP0726261A1, “Herbidical 1,2,4 thiadiazoles” (American Cyanamid Company, priority 1995, dated 1996)

What was measured:
Assay type in all cases: in vivo
Triticum aestivum [1] = test: Preemergence herbicidal activity (Example 67); parameters: herbicide rating, TRZAW: scale not given here; conditions: pre, 800 g/ha
Description: (§1) Herbicidal evaluation of compounds of the invention is conducted on the following plant species:
(§2) The soil is a prepared horticultural substrate containing 30% peat, 20% volcanic clay, 30% bark residues and 20% polyamide/styromull in a 1:3 mixture with loamy sand. Test solutions are prepared by dissolving the test compound in acetone containing 0.5% of an alkylphenol/ethylene oxide condensate under the trademark, TRITON® X-155, and diluting with water as needed. The test solutions are applied as a spray to the 3-6 week old seedling plants at dose rates corresponding to 800g/ha in a volume equivalent to 400 L/ha. A pneumatic spraying device employing a Teejet nozzle SS 8002E operating at 3 bar is used for a predetermined time. After spraying, the treated plants are placed on greenhouse benches and cared for in a manner commensurate with conventional greenhouse practice. After 10-21 days, the treated plants are evaluated and rated according to the rating system provided below.
(§3) The soil surface is then sprayed with test solutions as described in the postemergence evaluation hereinabove. After spraying, the treated cups are placed on greenhouse benches and cared for in the manner commensurate with conventional greenhouse practice. About 1-3 weeks after treatment the cups are evaluated and rated according to the rating system provided hereinabove.

Alopecurus myosuroides [2] = test: Preemergence herbicidal activity (Example 67); parameters: herbicide rating, ALOMY: scale not given here; conditions: pre, 800 g/ha
Description: as §1, §2, §3

Veronica persica [3] = test: Preemergence herbicidal activity (Example 67); conditions: pre, 800 g/ha
Description: as §1, §2, §3

Amaranthus retroflexus [4] = test: Preemergence herbicidal activity (Example 67); conditions: pre, 800 g/ha
Description: as §1, §2, §3

Ipomoea hederacea [5] = test: Preemergence herbicidal activity (Example 67); conditions: pre, 800 g/ha
Description: as §1, §2, §3

Zea mays [6] = test: Preemergence herbicidal activity (Example 67); conditions: pre, 800 g/ha
Description: as §1, §2, §3

Galium aparine [7] = test: Preemergence herbicidal activity (Example 67); conditions: pre, 800 g/ha
Description: as §1, §2, §3

Helianthus annuus [8] = test: Preemergence herbicidal activity (Example 67); conditions: pre, 800 g/ha
Description: as §1, §2, §3

Chenopodium album [9] = test: Preemergence herbicidal activity (Example 67); conditions: pre, 800 g/ha
Description: as §1, §2, §3

Abutilon theophrasti [10] = test: Preemergence herbicidal activity (Example 67); conditions: pre, 800 g/ha
Description: as §1, §2, §3

Hordeum vulgare [11] = test: Preemergence herbicidal activity (Example 67); parameters: herbicide rating, HORVW: scale not given here; conditions: pre, 800 g/ha
Description: as §1, §2, §3

Setaria viridis [12] = test: Preemergence herbicidal activity (Example 67); parameters: herbicide rating, SETVI: scale not given here; conditions: pre, 800 g/ha
Description: as §1, §2, §3

Veronica persica [13] = test: Postemergence herbicidal activity (Example 67); conditions: pos, 800 g/ha
Description: as §1, §2

Amaranthus retroflexus [14] = test: Postemergence herbicidal activity (Example 67); conditions: pos, 800 g/ha
Description: as §1, §2

Ipomoea hederacea [15] = test: Postemergence herbicidal activity (Example 67); conditions: pos, 800 g/ha
Description: as §1, §2

Zea mays [16] = test: Postemergence herbicidal activity (Example 67); conditions: pos, 800 g/ha
Description: as §1, §2

Triticum aestivum [17] = test: Postemergence herbicidal activity (Example 67); conditions: pos, 800 g/ha
Description: as §1, §2

Setaria viridis [18] = test: Postemergence herbicidal activity (Example 67); conditions: pos, 800 g/ha
Description: as §1, §2

Galium aparine [19] = test: Postemergence herbicidal activity (Example 67); conditions: pos, 800 g/ha
Description: as §1, §2

Helianthus annuus [20] = test: Postemergence herbicidal activity (Example 67); conditions: pos, 800 g/ha
Description: as §1, §2

Chenopodium album [21] = test: Postemergence herbicidal activity (Example 67); conditions: pos, 800 g/ha
Description: as §1, §2

Hordeum vulgare [22] = test: Postemergence herbicidal activity (Example 67); conditions: pos, 800 g/ha
Description: as §1, §2

Alopecurus myosuroides [23] = test: Postemergence herbicidal activity (Example 67); conditions: pos, 800 g/ha
Description: as §1, §2

Abutilon theophrasti [24] = test: Postemergence herbicidal activity (Example 67); conditions: pos, 800 g/ha
Description: as §1, §2

[25] = rated about 1-3 weeks after treatment

`O=C(NC1CCCc2ccccc21)c1nc(-c2ccccc2F)ns1` (racemic) [Example 53] was tested, and the “TRZ AW rating” value (Triticum aestivum [1]) was 1 (1-5%), the “ALO MY rating” value (Alopecurus myosuroides [2]) was 0 and the “VER PE rating” value (Veronica persica [3]) was 6 (65-79%). The “AMA RE rating” value (Amaranthus retroflexus [4]) was 3 (16-29%), the “IPO HE rating” value (Ipomoea hederacea [5]) was 0 and the “ZEA MX rating” value (Zea mays [6]) was 0. The “GAL AP rating” value (Galium aparine [7]) was 0, the “HEL AN rating” value (Helianthus annuus [8]) was 0 and the “CHE AL rating” value (Chenopodium album [9]) was 0. The “ABU TH rating” value (Abutilon theophrasti [10]) was 0, the “HOR VW rating” value (Hordeum vulgare [11]) was 0 and the “SET VI rating” value (Setaria viridis [12]) was 0. The “VER PE rating” value (Veronica persica [13]) was 0, the “AMA RE rating” value (Amaranthus retroflexus [14]) was 0 and the “IPO HE rating” value (Ipomoea hederacea [15]) was 2 (6-15%). The “ZEA MX rating” value (Zea mays [16]) was 0, the “TRZ AW rating” value (Triticum aestivum [17]) was 2 (6-15%) and the “SET VI rating” value (Setaria viridis [18]) was 5 (45-64%). For the same compound, the “GAL AP rating” value (Galium aparine [19]) was 2 (6-15%), the “HEL AN rating” value (Helianthus annuus [20]) was 0 and the “CHE AL rating” value (Chenopodium album [21]) was 0. The “HOR VW rating” value (Hordeum vulgare [22]) was 2 (6-15%), the “ALO MY rating” value (Alopecurus myosuroides [23]) was 1 (1-5%) and the “ABU TH rating” value (Abutilon theophrasti [24]) was 0.

`COc1ccc(-c2nsc(C(=O)NC3CCCc4ccccc43)n2)cc1` (racemic) [Example 54] was tested, and the “TRZ AW rating” value (Triticum aestivum [1]) was 0, the “ALO MY rating” value (Alopecurus myosuroides [2]) was 0 and the “VER PE rating” value (Veronica persica [3]) was 0. For the same compound, the “AMA RE rating” value (Amaranthus retroflexus [4]) was 0, the “IPO HE rating” value (Ipomoea hederacea [5]) was 0 and the “ZEA MX rating” value (Zea mays [6]) was 0. For the same compound, the “GAL AP rating” value (Galium aparine [7]) was 0, the “HEL AN rating” value (Helianthus annuus [8]) was 0 and the “CHE AL rating” value (Chenopodium album [9]) was 0. For the same compound, the “ABU TH rating” value (Abutilon theophrasti [10]) was 0, the “HOR VW rating” value (Hordeum vulgare [11]) was 0 and the “SET VI rating” value (Setaria viridis [12]) was 0. For the same compound, the “VER PE rating” value (Veronica persica [13]) was 0, the “AMA RE rating” value (Amaranthus retroflexus [14]) was 0 and the “IPO HE rating” value (Ipomoea hederacea [15]) was 2 (6-15%). The “ZEA MX rating” value (Zea mays [16]) was 4 (30-44%), the “TRZ AW rating” value (Triticum aestivum [17]) was 1 (1-5%) and the “SET VI rating” value (Setaria viridis [18]) was 3 (16-29%). For the same compound, the “GAL AP rating” value (Galium aparine [19]) was 3 (16-29%), the “HEL AN rating” value (Helianthus annuus [20]) was 4 (30-44%) and the “CHE AL rating” value (Chenopodium album [21]) was 2 (6-15%). The “HOR VW rating” value (Hordeum vulgare [22]) was 3 (16-29%), the “ALO MY rating” value (Alopecurus myosuroides [23]) was 2 (6-15%) and the “ABU TH rating” value (Abutilon theophrasti [24]) was 2 (6-15%).

`CC(NC(=O)c1nsc(-c2ccccc2F)n1)c1cccs1` (racemic) [Example 57, (R/S)-5-(2-Fluorophenyl)-[1,2,4]thiadiazole-3-carboxylic acid, [1-(2-thienyl)ethyl]amide] was tested, and the “TRZ AW rating” value (Triticum aestivum [1]) was 2 (6-15%), the “ALO MY rating” value (Alopecurus myosuroides [2]) was 3 (16-29%) and the “VER PE rating” value (Veronica persica [3]) was 0. The “AMA RE rating” value (Amaranthus retroflexus [4]) was 4 (30-44%), the “IPO HE rating” value (Ipomoea hederacea [5]) was 0 and the “ZEA MX rating” value (Zea mays [6]) was 0. The “GAL AP rating” value (Galium aparine [7]) was 0, the “HEL AN rating” value (Helianthus annuus [8]) was 0 and the “CHE AL rating” value (Chenopodium album [9]) was 1 (1-5%). For the same compound, the “ABU TH rating” value (Abutilon theophrasti [10]) was 0, the “HOR VW rating” value (Hordeum vulgare [11]) was 0 and the “SET VI rating” value (Setaria viridis [12]) was 2 (6-15%). The “VER PE rating” value (Veronica persica [13]) was 6 (65-79%), the “AMA RE rating” value (Amaranthus retroflexus [14]) was 7 (80-90%) and the “IPO HE rating” value (Ipomoea hederacea [15]) was 7 (80-90%). For the same compound, the “ZEA MX rating” value (Zea mays [16]) was 5 (45-64%), the “TRZ AW rating” value (Triticum aestivum [17]) was 3 (16-29%) and the “SET VI rating” value (Setaria viridis [18]) was 9 (100% effect). The “GAL AP rating” value (Galium aparine [19]) was 7 (80-90%), the “HEL AN rating” value (Helianthus annuus [20]) was 8 (91-99%) and the “CHE AL rating” value (Chenopodium album [21]) was 4 (30-44%). For the same compound, the “HOR VW rating” value (Hordeum vulgare [22]) was 4 (30-44%), the “ALO MY rating” value (Alopecurus myosuroides [23]) was 4 (30-44%) and the “ABU TH rating” value (Abutilon theophrasti [24]) was 9 (100% effect).

`COc1ccc(-c2nsc(C(=O)N[C@@H](C)c3ccccc3)n2)cc1` [Example 2, (S)-3-(4-Methoxyphenyl)-[1,2,4]thiadiazole-5-carboxylic acid (1-phenylethyl)amide] was tested, and the “herbicide rating, TRZAW” value (Triticum aestivum [1]; [25]) was 0, the “herbicide rating, ALOMY” value (Alopecurus myosuroides [2]; [25]) was 0 and the “herbicide rating, VERPE” value (Veronica persica [3]; [25]) was 0. For the same compound, the “herbicide rating, AMARE” value (Amaranthus retroflexus [4]; [25]) was 0, the “herbicide rating, IPOHE” value (Ipomoea hederacea [5]; [25]) was 5 (45-64%) and the “herbicide rating, ZEAMX” value (Zea mays [6]; [25]) was 0. The “herbicide rating, GALAP” value (Galium aparine [7]; [25]) was 0, the “herbicide rating, HELAN” value (Helianthus annuus [8]; [25]) was 0 and the “herbicide rating, CHEAL” value (Chenopodium album [9]; [25]) was 0. The “herbicide rating, ABUTH” value (Abutilon theophrasti [10]; [25]) was 0, the “herbicide rating, HORVW” value (Hordeum vulgare [11]; [25]) was 0 and the “herbicide rating, SETVI” value (Setaria viridis [12]; [25]) was 0. For the same compound, the “herbicide rating, VERPE” value (Veronica persica [13]; rated after 10-21 days) was 0, the “herbicide rating, AMARE” value (Amaranthus retroflexus [14]; rated after 10-21 days) was 0 and the “herbicide rating, IPOHE” value (Ipomoea hederacea [15]; rated after 10-21 days) was 2 (6-15%). For the same compound, the “herbicide rating, ZEAMX” value (Zea mays [16]; rated after 10-21 days) was 1 (1-5%), the “herbicide rating, TRZAW” value (Triticum aestivum [17]; rated after 10-21 days) was 2 (6-15%) and the “herbicide rating, SETVI” value (Setaria viridis [18]; rated after 10-21 days) was 5 (45-64%). The “herbicide rating, GALAP” value (Galium aparine [19]; rated after 10-21 days) was 0, the “herbicide rating, HELAN” value (Helianthus annuus [20]; rated after 10-21 days) was 1 (1-5%) and the “herbicide rating, CHEAL” value (Chenopodium album [21]; rated after 10-21 days) was 3 (16-29%). For the same compound, the “herbicide rating, HORVW” value (Hordeum vulgare [22]; rated after 10-21 days) was 2 (6-15%), the “herbicide rating, ALOMY” value (Alopecurus myosuroides [23]; rated after 10-21 days) was 2 (6-15%) and the “herbicide rating, ABUTH” value (Abutilon theophrasti [24]; rated after 10-21 days) was 1 (1-5%).
